Test results from patent US9994571B2, “10-substituted morphinan hydantoins” (Purdue Pharma L.P., priority 2013, dated 2018).
Where two headings read alike, the source gives them in different places.

Key:
[1] = target: T1, μ-opioid receptor (Homo sapiens (Human), UniProt P35372); assay: μ-opioid receptor radioligand dose-displacement binding assay ([3H]-diprenorphine); conditions: binding assays using HEK-293 cells
Procedure: Radioligand dose-displacement binding assays for μ-opioid receptors used 0.3 nM [^3H]-diprenorphine (Perkin Elmer, Shelton, Conn.), with […] membrane protein/well in a final volume of 500 μl binding buffer (10 mM MgCl2, 1 mM EDTA, 5% DMSO, 50 mM HEPES, pH 7.4). Reactions were carried out in the absence or presence of increasing concentrations of unlabeled naloxone. All reactions were conducted in 96-deep well polypropylene plates for 2 hours at room temperature. Binding reactions were terminated by rapid filtration onto 96-well Unifilter GF/C filter plates (Perkin Elmer, Shelton, Conn.), presoaked in 0.5% polyethylenimine using a 96-well tissue harvester (Perkin Elmer, Shelton, Conn.) followed by performing three filtration washes with 500 μl of ice-cold binding buffer. Filter plates were subsequently dried at 50° C. for 2-3 hours. BetaScint scintillation cocktail (Perkin Elmer, Shelton, Conn.) was added (50 μl/well), and plates were counted using a Packard Top-Count for 1 min/well. The data were analyzed using the one-site competition curve fitting functions in GraphPad PRISM™ v. 3.0 or higher (San Diego, Calif.), or an in-house function for one-site competition curve-fitting.
(§1) In TABLE 1, binding affinity of certain Compounds of the Invention to the μ- and κ-opioid receptors was determined as described above for binding assays using HEK-293 cells.

[2] = target: T2, κ opioid receptor (Homo sapiens (Human), UniProt P41145); assay: κ-opioid receptor radioligand dose-displacement binding assay ([3H]-U69,593); conditions: binding assays using HEK-293 cells
Procedure: Membranes from HEK-293 cells, CHO or U-2 OS cells expressing the recombinant human κ opioid receptor (κ) were prepared by lysing cells in ice cold hypotonic buffer (2.5 mM MgCl2, 50 mM HEPES, pH 7.4) (10 mL/10 cm dish) followed by homogenization with a tissue grinder/Teflon pestle. Membranes from a cell line naturally expressing kappa opioid receptor can also be used. Membranes were collected by centrifugation at 30,000×g for 15 min at 4° C. and pellets were resuspended in hypotonic buffer to a final concentration of 1-3 mg/mL. Protein concentrations were determined using the BioRad protein assay reagent with bovine serum albumen as standard. Aliquots of K receptor membranes were stored at −80° C.
Radioligand dose displacement assays used 0.4 nM [^3H]-U69,593 (GE Healthcare, Piscataway, N.J.; 40 Ci/mmole) with 15 μg membrane protein (recombinant κ opioid receptor expressed in HEK 293 cells; in-house prep) in a final volume of 200 μl binding buffer (5% DMSO, 50 mM Trizma base, pH 7.4). Non-specific binding was determined in the presence of 10 μM unlabeled naloxone or U69,593. All reactions were performed in 96-well polypropylene plates for 1 hour at a temperature of about 25° C. Binding reactions were terminated by rapid filtration onto 96-well Unifilter GF/C filter plates (Perkin Elmer, Shelton, Conn.) presoaked in 0.5% polyethylenimine (Sigma). Harvesting was performed using a 96-well tissue harvester (Perkin Elmer, Shelton, Conn.) followed by five filtration washes with 200 μl ice-cold binding buffer. Filter plates were subsequently dried at 50° C. for 1-2 hours. Fifty μl/well scintillation cocktail (Perkin Elmer, Shelton, Conn.) was added and plates were counted in a Packard Top-Count for 1 min/well.
as §1

[3] = target: T2, κ opioid receptor; assay: κ-opioid receptor [35S]GTPγS functional assay; type: biochemical; conditions: for Emax: functional assays using U-2 OS cells, relative to the effect elicited by U69,593
Procedure: Functional [^35S]GTPγS binding assays were conducted as follows. κ opioid receptor membrane solution was prepared by sequentially adding final concentrations of 0.026 μg/μl κ membrane protein (in-house), 10 μg/mL saponin, 3 μM GDP and 0.20 nM [^35S]GTPγS to binding buffer (100 mM NaCl, 10 mM MgCl2, 20 mM HEPES, pH 7.4) on ice. The prepared membrane solution (190 μl/well) was transferred to 96-shallow well polypropylene plates containing 10 μl of 20× concentrated stock solutions of agonist prepared in DMSO. Plates were incubated for 30 min at a temperature of about 25° C. with shaking. Reactions were terminated by rapid filtration onto 96-well Unifilter GF/B filter plates (Perkin Elmer, Shelton, Conn.) using a 96-well tissue harvester (Packard) and followed by three filtration washes with 200 μl ice-cold binding buffer (10 mM NaH2PO4, 10 mM Na2HPO4, pH 7.4). Filter plates were subsequently dried at 50° C. for 2-3 hours. Fifty μl/well scintillation cocktail (Perkin Elmer, Shelton, Conn.) was added and plates were counted in a Packard Top-Count for 1 min/well.
κ GTP EC50 is the concentration of a compound providing 50% of the maximal response for the compound at a K receptor.
κ GTP Emax (%) is the maximal effect elicited by a compound relative to the effect elicited by U69,593.
(§2) In TABLE 2, activity response of certain Compounds of the Invention to the μ- and κ-opioid receptors was determined as described above for functional assays using U-2 OS cells.

[4] = target: T1, μ-opioid receptor; assay: μ-opioid receptor [35S]GTPγS functional assay; type: biochemical
Procedure: [^35S]GTPγS functional assays were conducted using freshly thawed μ-receptor membranes prepared in-house from a cell line expressing recombinant μ opioid receptor in a HEK-293, CHO or U-2 OS cell background, or purchased from a commercial source (Perkin Elmer, Shelton, Conn.; or DiscovRx, Fremont, Calif.). Assay reactions were prepared by sequentially adding the following reagents to binding buffer (100 mM NaCl, 10 mM MgCl2, 20 mM HEPES, pH 7.4) on ice (final concentrations indicated): membrane protein (0.026 mg/mL), saponin ([…]), GDP ([…]) and [^35S]GTPγS (0.20 nM; Perkin Elmer, Shelton, Conn.). The prepared membrane solution (190 l/well) was transferred to 96-shallow well polypropylene plates containing 10 μl of 20× concentrated stock solutions of the agonist [D-Ala^2, N-methyl-Phe^4 Gly-ol^5]-enkephalin (DAMGO) prepared in dimethyl sulfoxide (DMSO). Plates were incubated for 30 min at about 25° C. with shaking. Reactions were terminated by rapid filtration onto 96-well Unifilter GF/B filter plates (Perkin Elmer, Shelton, Conn.) using a 96-well tissue harvester (Perkin Elmer, Shelton, Conn.) followed by three filtration washes with 200 μl of ice-cold wash buffer (10 mM NaH2PO4, 10 mM Na2HPO4, pH 7.4). Filter plates were subsequently dried at 50° C. for 2-3 hours. BetaScint scintillation cocktail (Perkin Elmer, Shelton, Conn.) was added (50 μl/well) and plates were counted using a Packard Top-Count for 1 min/well. Data were analyzed using the sigmoidal dose-response curve fitting functions in GraphPad PRISM v. 3.0, or an in-house function for non-linear, sigmoidal dose-response curve-fitting.
μ GTP EC50 is the concentration of a compound providing 50% of the maximal response for the compound at a μ-opioid receptor.
μ GTP Emax (%) is the maximal effect elicited by a compound relative to the effect elicited by DAMGO, a standard μ agonist. Generally, the μ GTP Emax (%) value measures the efficacy of a compound to treat or prevent pain or other Conditions.
as §2

[5] = bound given in μM, read-out: Opioid Receptor Ki μ
[6] = bound given in μM, read-out: Opioid Receptor Ki κ
[7] = read-out: Opioid Receptor Ki (nM) κ
[8] = read-out: Opioid Receptor Ki (nM) μ

SMILES	Ki [1, 5] [µM]	Ki [2, 6] [µM]	Ki [2, 7] [µM]	also measured
COc1ccc2c3c1O[C@@H]1[C@]34CCN(CC3CC3)[C@H]([C@@H]2O)[C@]4(O)CC[C@]12NC(=O)NC2=O (stereo in doubt) [Compound 9, (4S,4′R,4a′S,7a′R,12b′S,13′R)-3′-(cyclopropylmethyl)-4a′,13′-dihydroxy-9′-methoxy-2′,3′,4′,4a′,5′,6′-hexahydro-1′H,7a′H-spiro[imidazazolidine-4,7′-[4,12]methanobenzofuro[3,2-e]isoquinoline]-2,5-dione]	> 20	> 20	–	–
COc1ccc2c(c1)[C@]13CCN(CC4CC4)[C@H](C2=O)[C@]1(O)CC[C@@]1(C3)NC(=O)NC1=O [Compound 6, (4bR,4′S,8aS,9S)-11-(cyclopropylmethyl)-8a-hydroxy-3-methoxy-7,8,8a,9-tetrahydrospiro[9,4b-(epiminoethano)phenanthrene-6,4′-imidazolidine]-2′,5′,10(5H)-trione]	> 20	–	1.05 ± 0.0846	–
COc1ccc2c(c1)[C@]13CCN(CC4CC4)[C@H]([C@@H]2O)[C@]1(O)CC[C@@]1(C3)NC(=O)NC1=O [Compound 7, (4bR,4′S,8aS,9R,10R)-11-(cyclopropylmethyl)-8a,10-dihydroxy-3-methoxy-5,7,8,8a,9,10-hexahydrospiro[9,4b-(epiminoethano)phenanthrene-6,4′-imidazolidine]-2′,5′-dione]	> 20	> 20	–	–
COc1ccc2c3c1O[C@@H]1[C@]34CCN(CC3CC3)[C@H](C2=O)[C@]4(O)CC[C@]12NC(=O)NC2=O [Compound 8, (4S,4′S,4a′S,7a′R,12b′S)-3′-(cyclopropylmethyl)-4a′-hydroxy-9′-methoxy-2′,3′,4′,4a′,5′,6′-hexahydro-1′H,7a′H-spiro[imidazolidine-4,7′-[4,12]methanobenzofuro[3,2-e]isoquinoline]-2,5,13′-trione]	> 20	> 20	–	–
COc1ccc2c(c1)[C@]13CCN(CC4CC4)[C@H]([C@@H]2O)[C@@H]1CC[C@@]1(C3)NC(=O)NC1=O [Compound 10, (4bS,4′S,8aR,9S,10R)-11-(cyclopropylmethyl)-10-hydroxy-3-methoxy-5,7,8,8a,9,10-hexahydrospiro[9,4b-(epiminoethano)phenanthrene-6,4′-imidazolidine]-2′,5′-dione]	> 20	–	3.58 ± 0.647	–
COc1ccc2c(c1)[C@]13CCN(C)[C@H](C2=O)[C@]1(O)CC[C@@]1(C3)NC(=O)NC1=O [Compound 11, (4bR,4′S,8aS,9S)-8a-hydroxy-3-methoxy-11-methyl-7,8,8a,9-tetrahydrospiro [9,4b-(epiminoethano)phenanthrene-6,4′-imidazolidine]-2′,5′,10(5H)-trione]	> 20	> 20	–	–
COc1ccc2c(c1)[C@]13CCN(C)[C@H]([C@@H]2O)[C@]1(O)CC[C@@]1(C3)NC(=O)NC1=O [Compound 12, (4bR,4′S,8aS,9R,10R)-8a,10-dihydroxy-3-methoxy-11-methyl-5,7,8,8a,9,10-hexahydrospiro[9,4b-(epiminoethano)phenanthrene-6,4′-imidazolidine]-2′,5′-dione]	–	> 20	–	Ki [1, 8]: 12.6 µM
O=C1NC(=O)[C@@]2(CC[C@@]3(O)[C@H]4[C@H](O)c5ccc(O)cc5[C@@]3(CCN4CC3CC3)C2)N1 [Compound 14, (4bR,4′S,8aS,9R,10R)-11-(cyclopropylmethyl)-3,8a,10-trihydroxy-5,7,8,8a,9,10-hexahydrospiro[9,4b-(epiminoethano)phenanthrene-6,4′-imidazolidine]-2′,5′-dione]	–	–	0.0781 ± 0.021	Ki [1, 8]: 1.02 ± 0.0521 µM; EC50 [3]: 0.183 ± 0.0173 µM; Emax [3]: 111 ± 2.91%
O=C1NC(=O)[C@@]2(CC[C@@]3(O)[C@H]4C(=O)c5ccc(O)c6c5[C@@]3(CCN4CC3CC3)[C@H]2O6)N1 [Compound 15, (4S,4′S,4a′S,7a′R,12b′S)-3′-(cyclopropylmethyl)-4a′,9′-dihydroxy-2′,3′,4′,4a′,5′,6′-hexahydro-1′H,7a′H-spiro [imidazolidine-4,7′-[4,12]methanobenzofuro [3,2-e]isoquinoline]-2,5,13′-trione]	–	–	2.52 ± 0.708	Ki [1, 8]: 15.4 ± 3.13 µM
O=C1NC(=O)[C@@]2(CC[C@@]3(O)[C@H]4[C@H](O)c5ccc(O)c6c5[C@@]3(CCN4CC3CC3)[C@H]2O6)N1 [Compound 16, (4S,4′R,4a′S,7a′R,12b′S,13′R)-3′-(cyclopropylmethyl)-4a′,9′,13′-trihydroxy-2′,3′,4′,4a′,5′,6′-hexahydro-1′H,7a′H-spiro[imidazolidine-4,7′-[4,12]methanobenzofuro [3,2-e]isoquinoline]-2,5-dione]	> 20	> 20	–	–
CN1CC[C@]23C[C@]4(CC[C@@]2(O)[C@H]1[C@H](O)c1ccc(O)cc13)NC(=O)NC4=O [Compound 17, (4bR,4′S,8aS,9R,10R)-3,8a,10-trihydroxy-11-methyl-5,7,8,8a,9,10-hexahydrospiro[9,4b-(epiminoethano)phenanthrene-6,4′-imidazolidine]-2′,5′-dione]	–	–	–	EC50 [3]: 5.78 ± 1.1 µM; Emax [3]: 107 ± 1.53%; EC50 [4]: 0.116 ± 0.023 µM; Emax ([4]; functional assays using U-2 OS cells, relative to the effect elicited by DAMGO): 98.8 ± 0.97%
